The assay has as its target T1, BdPAPT-CD (Babesia duncani, UniProt A0AAD9PLN9).
T1 sequence (A0AAD9PLN9 301-734): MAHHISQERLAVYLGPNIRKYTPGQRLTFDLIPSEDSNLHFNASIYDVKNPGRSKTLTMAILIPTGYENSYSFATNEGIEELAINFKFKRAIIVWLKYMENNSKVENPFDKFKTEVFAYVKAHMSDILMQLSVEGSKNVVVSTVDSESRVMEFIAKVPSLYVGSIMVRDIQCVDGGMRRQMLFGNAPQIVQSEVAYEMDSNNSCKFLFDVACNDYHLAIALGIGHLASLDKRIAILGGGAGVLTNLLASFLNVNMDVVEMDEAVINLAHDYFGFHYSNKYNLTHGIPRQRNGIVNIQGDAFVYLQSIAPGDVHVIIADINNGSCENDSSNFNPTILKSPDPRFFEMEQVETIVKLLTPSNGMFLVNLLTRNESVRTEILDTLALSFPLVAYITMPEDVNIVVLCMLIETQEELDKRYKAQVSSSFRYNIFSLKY
As to the kind of experiment: TLC of spermidine formation. It is filed as biochemical. As to conditions: 0.1 mM dcSAM, 0.1 mM putrescine, 37 °C, potassium phosphate pH 7.5.

For `NCCCCN` [PUT], the “TLC of spermidine formation” value was “efficient conversion of PUT to SPD by BdPAPT-Cterm and its CD”.
